{"source": "patent US12173039B1", "about": "“TPL2 inhibiting agents, uses thereof, and detection of TPL2” (Washington University, priority 2021, dated 2024)", "key": {"[1]": {"tested_on": "HPNE-KRAS^G12D cells, HEKT/tH-KRAS^G12V cells, conventional PDAC lines, and PDCLs", "test": "Anchorage independent soft agar growth assay, human KRAS-mutant lines", "format": "cell-based", "method": "(§1) Cells were seeded at 5000-15000 cells in 0.3% noble agar-DMEM suspension per well, in triplicate, in 24 well plate. For drug treatment, compound was added to cell suspension at 1× concentration. Seeded cells were fed with fresh 0.6% agar-DMEM mix once every 7-12 days. […] After 3-6 weeks, colonies were counted under microscope and imaged. Colony count was normalized to control and graphed in GraphPad Prism v7/8."}, "[2]": {"tested_on": "serum-response element (SRE)", "test": "Serum-response element (SRE) luciferase reporter assay", "format": "cell-based, human", "details": "HPAC cells", "method": "(§2) Cells stably expressing plasmid encoding serum-response-element (SRE) or NFKB promoter driven Firefly luciferase and constitutive Renilla luciferase were seeded at equal density per well and treatment was initiated the next day for 16-24 duration. Alternatively, 293T reporter cells were transfected in duplicate or triplicate with 1 μg of appropriate plasmid DNA. Medium was replaced 16-18 hours later and at 48 hours post-transfection reporter activity was measured using Dual-Glo® Luciferase Assay System. Data was acquired using SpectraMax i3Microplate Reader and analysis was performed by calculating ratio of firefly:renilla. Values were normalized to control and graphed using GraphPad Prism v7/8 software."}, "p-p105, p-p65": {"tested_on": "p-p105, p-p65", "test": "Immunoblots of NF-κB markers in PDAC cells", "format": "cell-based, human", "details": "Pa01C, Pa02C, Pa03C, and HPAC cells; IRAK4 inhibition", "method": "(§3) Standard immunoblotting procedure was followed. Cells were washed twice with ice-cold 1×PBS and lysed with ice-cold triton-X lysis buffer (25 mM Tris, pH 7.4, 150 mM NaCl, 5 mM EDTA, 1% Triton-X) containing 1× protease (10 μg mL-1 leupeptin, 700 ng mL-1 pepstatin, 170 ng mL-1 aprotinin, 1 mM PMSF) and phosphatase (10 mM NaF, 1 mM Na3VO4, 1 mM Na4P2O^7, 5 mM Na b-glycerophosphate) inhibitors. Lysates were quantified by Bradford assay (Thermo Scientific), normalized for concentration, and reduced and denatured with 6×SDS sample buffer followed by boiling for 5 minutes. 20-40 μg of protein per sample was resolved by SDS-PAGE, blotted on PVDF membrane and probed with primary antibodies (Cell Signaling Technologies: p-ERK1/2 (#4370), p-MEK1/2 (#9154), ERK1/2 (#4695), MEK1/2 (#8727), p-p105 (#4806), NFS2KB1 p105/p50 (#3035), p-IRAK4 (#11927), IRAK4 (#4363), ubiquitin (#43124), anti-HA (#3724), p-p90RSK (#11989), RSK1/2/3 (#9355), p-TPL2 (#4491), PARP (#9532), p-B-RAF S445 (#2696), BRAF (#9433S). Santa Cruz Biotechnology: GAPDH (#sc-32233), p-p65 S536 (#sc101752). Thermo Fisher Scientific: p-55 TPL2 (#PA5-36635). EMD Millipore: IRAK4 (#07-418). R&D systems: TPL2/MAP3K8 (#MAB4586). Novus Biologicals: anti-AU1 (#NB600-453). Abcam: p-p65 S276 (#ab194726)). Membranes were incubated with appropriate HRP-conjugated secondary antibodies (anti-mouse or anti-rabbit, (1:5000 dilution), Jackson Laboratory) and imaged using chemiluminescent substrate. Additional steps for immunoprecipitation include incubation of soluble fraction lysate with anti-HA magnetic beads (Thermo Scientific cat #88837) overnight at 4° C., washing, and elution using 1×SDS sample buffer and boiling as mentioned in manufacturer's protocol."}, "KP2 cells": {"tested_on": "KP2 cells", "test": "Anchorage independent soft agar growth assay, KP2 cells", "format": "cell-based, murine", "method": "as §1"}, "NF-κB reporter activity": {"tested_on": "NF-κB reporter activity", "test": "NF-κB luciferase reporter assay", "format": "cell-based, human", "details": "KRAS-mutant PDAC cells (PANC-1); serial dilutions from 20 μM; 18 hours", "method": "as §2"}, "KRAS-mutant PDAC lines": {"tested_on": "KRAS-mutant PDAC lines", "test": "Drug response and viability assay (AlamarBlue), PDAC lines", "format": "cell-based, human", "details": "various KRAS-mutant PDAC lines; 5 and 7 days", "method": "Cells were seeded at 1500-2500 cells per well in triplicates, in 96 well format. Next day, appropriate inhibitor was added in serial dilution from 1.00×102 μM or indicated single doses. Vehicle (DMSO) was added to match volume of inhibitor used for highest concentration. […] Fluorescence at 585 nm (excitation 555 nm) was measured by SpectraMax i3 Microplate Reader. Raw values were normalized to vehicle, analyzed and graphed using GraphPad Prism v7/8 software."}, "MAPK activity": {"tested_on": "MAPK activity", "test": "Immunoblots of MAPK activity in murine PDAC lines KP2 and KI", "format": "cell-based", "details": "24 hours, serum-free", "method": "as §3, with “S536” left out, “S276” left out, “Membranes were incubated with appropriate HRP-conjugated secondary antibodies (anti-mouse or anti-rabbit, (1:5000 dilution), Jackson Laboratory) and imaged using chemiluminescent substrate. Additional steps for immunoprecipitation include incubation of soluble fraction lysate with anti-HA magnetic beads (Thermo Scientific cat #88837) overnight at 4° C., washing, and elution using 1×SDS sample buffer and boiling as mentioned in manufacturer's protocol.” left out"}}}
{"smiles": "CC[C@@H]1[C@H](F)C(=O)N[C@@H]1COc1nccc2cc(C(N)=O)c(OC)cc12", "note": "[PF06650833, 1-(((2S,3S,4S)-3-ethyl-4-fluoro-5-oxopyrrolidin-2-yl)methoxy)-7-methoxyisoquinoline-6-carboxamide]", "values": [{"measurement": "AI growth", "setting": "[1]; HPNE-KRAS^G12D cells", "value": "crippled the AI growth"}, {"measurement": "AI growth enhanced by IRAK4 overexpression", "setting": "[1]; HPNE-KRAS^G12D cells ectopically expressing IRAK4", "value": "reversed the effect of IRAK4 overexpression"}, {"measurement": "SRE-driven luciferase reporter activity", "setting": "[2]", "value": "dose-dependently reduced"}, {"measurement": "p-p105 levels", "setting": "p-p105, p-p65", "value": "suppresses"}, {"measurement": "AI growth in soft agar", "setting": "KP2 cells", "value": "dose-dependently suppressed"}, {"measurement": "NF-κB reporter activity", "setting": "NF-κB reporter activity", "value": "dose-dependently suppressed"}, {"measurement": "viability", "setting": "KRAS-mutant PDAC lines", "value": "dose-dependently reduced"}, {"measurement": "MAPK activity (immunoblot)", "setting": "MAPK activity", "value": "dose-dependently suppressed"}]}
